Data on five compounds can be found in ChEMBL document CHEMBL1128874 (Bioorg Med Chem Lett, 1995).

The experiment in a line: Antagonism of calmodulin dependent cAMP Phosphodiesterase. The experiment is classed as functional.

For orientation: IC50 means the concentration that inhibits the measured activity by half. A high value points to weaker potency.

As for `CC/C(=C(\c1ccc(I)cc1)c1ccc(OCCN2CCCC2)cc1)c1ccccc1` [IDOXIFENE], it took 1500 nM to reach half-maximal inhibition (IC50). `CC/C(=C(\c1ccc(I)cc1)c1ccc(OCCN2CCCC2)cc1)c1ccc(I)cc1`: the IC50 amounted to 5000 nM.

With `CC/C(=C(/c1ccc(I)cc1)c1ccc(OCCN2CCCC2)cc1)c1ccc(O)cc1`, the midpoint of inhibition, the IC50, lay at 2200 nM. With `CC/C(=C(\c1ccc(I)cc1)c1ccc(OCCN2CCCC2)cc1)c1ccc(O)cc1` the figure was 1800 nM; with `CC/C(=C(\c1ccc(I)cc1)c1ccc(OCCN2CCCC2)cc1)c1ccc(N)cc1`, 2600 nM.
